pIC50: −log10 of the molar value.
Molecular target: T1, ALK5 (Homo sapiens, UniProt P36897)
T1 construct: Cells were seeded at 3×10^4/well in 24-well plates were transiently transfected with 500 ng of (CAGA)-12-luciferase reporter construct; endogenous in cells; host or cells: Hs578T (ATCC HTB-22)
T1 sequence (P36897 34-503): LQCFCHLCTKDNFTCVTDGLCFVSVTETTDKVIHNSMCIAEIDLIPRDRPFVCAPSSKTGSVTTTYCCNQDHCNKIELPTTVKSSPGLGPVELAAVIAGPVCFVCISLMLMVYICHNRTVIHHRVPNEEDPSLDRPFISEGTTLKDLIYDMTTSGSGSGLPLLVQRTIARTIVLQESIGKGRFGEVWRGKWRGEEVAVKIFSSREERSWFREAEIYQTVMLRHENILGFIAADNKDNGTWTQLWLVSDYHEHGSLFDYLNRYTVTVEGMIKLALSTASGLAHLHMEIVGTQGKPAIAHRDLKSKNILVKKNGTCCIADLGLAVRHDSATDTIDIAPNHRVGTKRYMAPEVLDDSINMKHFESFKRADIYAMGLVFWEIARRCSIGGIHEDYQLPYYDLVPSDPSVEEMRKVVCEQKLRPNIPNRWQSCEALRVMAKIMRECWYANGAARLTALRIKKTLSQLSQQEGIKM
Experiment: Cell-based luciferase reporter assay for ALK5 activity
Conditions: (CAGA)-12-luciferase reporter, cells stimulated with 2 ng/ml recombinant TGF-β1 for 12 hours; Hs578T cells; read-out: Relative luciferase activity: IC50 value
Protocol: Human cancer cell lines Hs578T (ATCC® HTB-22™) cells were grown in DMEM (Dulbecco's modified Eagle's medium) supplemented with 10% fetal bovine serum and 1% mixture of penicillin and streptomycin (Gibco). Cells were maintained at 37° C. in a humidified 5% CO2− atmosphere.
Cell-Based Luciferase Reporter Assay for ALK5 Activity
Cells were seeded at 3×10^4/well in 24-well plates were transiently transfected with 500 ng of (CAGA)-12-luciferase reporter construct and 5 ng of pRL-TK Renilla luciferase vector (Promega, Madison, WI), an internal control for transfection efficiency, using Lipofectamine 3000 reagent (Thermo Fisher Scientific, Waltham, USA). After 24 h transfection, the cells were pre-treated with ALK5 inhibitor in dose-dependent manner. And then, Cells stimulated with 2 ng/ml recombinant TGF-β1 for 12 hours. After the stimulation, the firefly and Renilla luciferase activities were measured by Dual-Luciferase Reporter Assay (Promega). […]

Structure (SMILES)	pIC50
Cc1cccc(-c2[nH]c(NCc3cccc(F)c3)nc2-c2cc3cnn(C)c3cn2)n1 [Example 33, N-(3-fluorobenzyl)-4-(1-methyl-1H-pyrazolo[3,4-c]pyridin-5-yl)-5-(6-methyl-pyridin-2-yl)-1H-imidazol-2-amine]	> 8.00
Cc1cccc(-c2[nH]c(NCc3cccc(F)c3F)nc2-c2ccc3c(cnn3C)c2)n1 [Example 35, N-(2,3-difluorobenzyl)-4-(1-methyl-1H-indazol-5-yl)-5-(6-methylpyridin-2-yl)-1H-imidazol-2-amine]	7.00 to 8.00
Cc1cccc(-c2[nH]c(NCc3ccc(Cl)c(Cl)c3)nc2-c2ccc3c(cnn3C(F)F)c2)n1 [Example 28, N-(3,4-dichlorobenzyl)-4-(1-(difluoromethyl)-1H-indazol-5-yl)-5-(6-methyl-pyridin-2-yl)-1H-imidazol-2-amine]	7.00 to 8.00
Cc1cccc(-c2[nH]c(NCc3ccc(F)cc3F)nc2-c2ccc3c(cnn3C)c2)n1 [Example 36, N-(2,4-difluorobenzyl)-4-(1-methyl-1H-indazol-5-yl)-5-(6-methylpyridin-2-yl)-1H-imidazol-2-amine]	7.00 to 8.00
Cc1cccc(-c2[nH]c(NCc3cccc(C)c3F)nc2-c2ccc3c(cnn3C)c2)n1 [Example 17, N-(2-fluoro-3-methylbenzyl)-4-(1-methyl-1H-indazol-5-yl)-5-(6-methylpyridin-2-yl)-1H-imidazol-2-amine]	7.00 to 8.00
Cc1ccc(CNc2nc(-c3ccc4c(cnn4C)c3)c(-c3cccc(C)n3)[nH]2)c(F)c1 [Example 18, N-(2-fluoro-4-methylbenzyl)-4-(1-methyl-1H-indazol-5-yl)-5-(6-methylpyridin-2-yl)-1H-imidazol-2-amine]	> 8.00
Cc1cccc(-c2[nH]c(NCc3cccc(Cl)c3F)nc2-c2ccc3c(cnn3C(F)F)c2)n1 [Example 27]	7.00 to 8.00
Cc1cccc(-c2[nH]c(NCc3cccc(F)c3)nc2-c2cnc3c(cnn3C)c2)n1 [Example 31, N-(3-fluorobenzyl)-4-(1-methyl-1H-pyrazolo[3,4-b]pyridin-5-yl)-5-(6-methyl-pyridin-2-yl)-1H-imidazol-2-amine]	> 8.00
Cc1cccc(-c2[nH]c(NCc3cccc(F)c3)nc2-c2ccc3c(cnn3C)n2)n1 [Example 32, N-(3-fluorobenzyl)-4-(1-methyl-1H-pyrazolo[4,3-b]pyridin-5-yl)-5-(6-methyl-pyridin-2-yl)-1H-imidazol-2-amine]	< 7.00
Cc1cccc(-c2[nH]c(NCc3cccc(F)c3)nc2-c2ccc3c(cnn3C(C)(C)CO)c2)n1 [Example 26, 2-(5-(2-((3-fluorobenzyl)amino)-5-(6-methylpyridin-2-yl)-1H-imidazol-4-yl)-1H-indazol-1-yl)-2-methylpropan-1-ol]	< 7.00
Cc1cccc(-c2[nH]c(NCc3ccc(C)c(F)c3)nc2-c2ccc3c(cnn3C)c2)n1 [Example 19, N-(3-fluoro-4-methylbenzyl)-4-(1-methyl-1H-indazol-5-yl)-5-(6-methyl-pyridine-2-yl)-1H-imidazol-2-amine]	> 8.00
Cc1cccc(-c2[nH]c(NCc3cccc(F)c3)nc2-c2cnc3[nH]ncc3c2)n1 [Example 38, N-(3-fluorobenzyl)-5-(6-methylpyridin-2-yl)-4-(1H-pyrazolo[3,4-b]pyridin-5-yl)-1H-imidazol-2-amine]	7.00 to 8.00
Cc1cccc(-c2[nH]c(NCc3cccc(F)c3)nc2-c2ccc3c(cnn3S(C)(=O)=O)c2)n1 [Example 22, N-(3-fluorobenzyl)-5-(6-methylpyridin-2-yl)-4-(1-(methylsulfonyl)-1H-indazol-5-yl)-1H-imidazol-2-amine]	< 7.00
Cc1cccc(-c2[nH]c(NCc3cccc(Cl)c3F)nc2-c2ccc3c(cnn3C)c2)n1 [Example 23, N-(3-chloro-2-fluorobenzyl)-4-(1-methyl-1H-indazol-5-yl)-5-(6-methylpyridin-2-yl)-1H-imidazol-2-amine]	> 8.00
Cc1cccc(-c2[nH]c(NCc3ccc(F)c(F)c3)nc2-c2ccc3c(cnn3C(F)F)c2)n1 [Example 29, N-(3,4-difluorobenzyl)-4-(1-(difluoromethyl)-1H-indazol-5-yl)-5-(6-methyl-pyridin-2-yl)-1H-imidazol-2-amine]	7.00 to 8.00

Reference: patent US12240830B2, “Fused ring heteroaryl compounds and use thereof” (BiSiChem Co., Ltd., priority 2021, dated 2025)
